Measurements taken from publication PMC12829593 (Journal of cystic fibrosis : official journal of the …, 2025).
In brackets after ≈: the same amount, converted by molar mass. Where two headings read alike, the source gives them in different places.

What was measured:
[1] = type: in vivo, human; settings: mean (SD); for Cavg / Cmin / AUC / Cmax / half-life / Tmax: plasma; for Cavg / Cmin / Cmax: steady state; for AUC / Cmax / half-life / Tmax: human, oral; for AUC: AUCτ, AUC24 (ELX, TEZ) or AUC12 (IVA)
[2] = tested on: CFTR; settings: estimated from published data, compounds used concurrently; cited from earlier work
[3] = Tacrolimus concentration in transplant participants; type: in vivo, human; settings: Transplant (n=12), concurrent ETI, mean (SD)
[4] = Transplant group (n=12), concomitant tacrolimus
[5] = T1/2, Non-transplant group (n=14)
[6] = T1/2, Transplant group (n=12), concomitant tacrolimus

Row | Structure (SMILES) | CLss/F ([1]; Non-transplant group (n=14)) | V/F ([1]; Non-transplant group (n=14)) | Cavg ([1]; Non-transplant group (n=14)) | Cmin ([1]; Non-transplant group (n=14)) | CLss/F [1, 4] | V/F [1, 4] | Cavg [1, 4] | Cmin [1, 4] | AUC ([1]; Non-transplant group (n=14)) [ng·h/mL] | AUC [1, 4] [ng·h/mL] | Cmax ([1]; Non-transplant group (n=14)) [ng/mL] | Cmax [1, 4] [ng/mL] | half-life [1, 5] [h] | half-life [1, 6] [h] | Tmax ([1]; Non-transplant group (n=14)) [h] | Tmax [1, 4] [h] | EC50 [2] [µg/mL] | EC90 [2] [µg/mL] | Tacrolimus concentration [3] | Cmin ([1]; Non-transplant group (n=14), listed as IVA) [ng/mL]
1 | Cc1nn(C)cc1S(=O)(=O)NC(=O)c1ccc(-n2ccc(OCC(C)(C)C(F)(F)F)n2)nc1N1C[C@@H](C)CC1(C)C [Elexacaftor, elexacaftor] | 2.05(2.29) L/h | 107(155) | 6398(3233) ng/mL | 4327(2359) ng/mL | 1.23(0.79) L/h | 37.4(15.0) | 8339(3152) ng/mL | 5632(2664) ng/mL | 154000 | 200000 | 9080 | 11400 | 35 | 23.6 | 4.79 | 7.33 | 0.5 (≈ 0.837 µM) | 4.5 (≈ 7.53 µM) | – | –
2 | CC(C)(CO)c1cc2cc(NC(=O)C3(c4ccc5c(c4)OC(F)(F)O5)CC3)c(F)cc2n1C[C@@H](O)CO [Tezacaftor, tezacaftor] | 1.53(0.83) L/h | 37.1(24.4) | 3294(1314) ng/mL | 1746(1050) ng/mL | 1.54(1.07) L/h | 47.5(59) | 3403(1240) ng/mL | 2016(904) ng/mL | 79000 | 82000 | 7460 | 6520 | 19 | 21 | 2.21 | 3.08 | 0.4 (≈ 0.768 µM) | 3.5 (≈ 6.72 µM) | – | –
3 | C=CC[C@@H]1/C=C(\C)C[C@H](C)C[C@H](OC)[C@H]2O[C@@](O)(C(=O)C(=O)N3CCCC[C@H]3C(=O)O[C@H](/C(C)=C/[C@@H]3CC[C@@H](O)[C@H](OC)C3)[C@H](C)[C@@H](O)CC1=O)[C@H](C)C[C@@H]2OC [Tacrolimus, tacrolimus] | – | – | – | – | – | – | – | – | – | – | – | – | – | – | – | – | – | – | 6.5 (1.5) ng/mL | –
4 | CC(C)(C)c1cc(C(C)(C)C)c(NC(=O)c2c[nH]c3ccccc3c2=O)cc1O [Ivacaftor, ivacaftor] | 27.9 (47.4) L/h | 337 (441) | 947 (507) ng/mL | 525 (325) ng/mL | 19.9 (15.5) L/h | 168 (71) | 833 (342) ng/mL | 467 (203) ng/mL | 11400 | 9900 | 1380 | – | 9.4 | 7.8 | 4 | 4.6 | 0.04 (≈ 0.102 µM) | 0.35 (≈ 0.892 µM) | – | 525
